From patent publication US8722580B2, “Agent for inhibiting cytokinin signaling” (Sumitomo Chemical Company, Limited, priority 2006, dated 2014)

Assays:
Arabidopsis thaliana = assay: Root growth-promoting activity test (Example 9); format: in vivo; conditions: main root length vs control section, 22° C., 10 days
Protocol: Enshi standard medium having the following composition (see Table 10) was prepared. To cluster tubes was dispensed each 4 μl of a solution of a chemical substance in DMSO to a final concentration of 0.001 ppm to 10 ppm, and then, was dispensed each 600 μl of the sterilized Enshi standard medium. Then the resulting solution was well mixed. In each of the cluster tubes, 10-20 seeds of Arabidopsis thaliana were sown, and cultured at 22° C. for 10 days in the light. Then, the length of main roots (average main roots) generated from the seeds of Arabidopsis thaliana was measured. An average of eight repeats was determined, and a root growth rate was determined according to the following equation.
Root growth rate (%)=(Average main root length in chemical substance-treated section)/(Average main root length in control section)×100

[1] = tested on: transformed cell TM182-p415CYC1; assay: Control growth test with transformed yeast cell TM182-p415CYC1 (toxicity to yeast); format: cell-based; conditions: trans-zeatin 0.6 ppm; chemical substance 2 ppm; 30° C., 24 hours; turbidity OD 600
Protocol: (§1) The transformed cell TM182-CRE1 and the transformed cell TM182-p415CYC1 obtained in Example 6 were each inoculated in 10 ml of a DOLU+Gal medium, and preincubated at 30° C. for 18 hours to obtain a preincubation liquid for each of the transformed cells. The preincubation liquid was diluted with a DOLU+Glu medium for the transformed cell TM182-CRE1 or with a DOLU+Gal medium for the transformed cell TM182-p415CYC1 until OD600=0.1 was reached, to obtain a preincubation dilution for each of the transformed cells.
(§2) To each well of a 96-well plate was added 1 μl of a 200 ppm solution of a test substance in dimethyl sulfoxide (DMSO) to prepare an Assay plate. At the same time, as controls, only 1 μl of DMSO was added to a part of wells. An assay plate for the transformed cell TM182-CRE1 and an assay plate for the transformed cell TM182-p415CYC1 were prepared.
(§3) A 10,000 ppm solution of trans-zeatin (cytokinin) in DMSO was 50-fold diluted with a DOLU+Gul medium to 200 ppm. The 200 ppm trans-zeatin solution was added in an amount of 3/1,000 volume to each of the above-described preincubation dilution to prepare each preincubation dilution containing trans-zeatin at 0.6 ppm. The 0.6 ppm preincubation dilution was added in an amount of 100 μl to each wells of the assay plate for each transformed cell. The plates were incubated at 30° C. for 24 hours. Then, turbidity (OD 600) of each well was measured by using a plate reader. The activity of the test substance for inhibiting intracellular signaling from a plant-derived cytokinin receptor of a cell was tested by comparing the measured turbidity with the turbidity of the control well.
(§4) (Relative growth rate in test section to control section) [%]=[(Turbidity in test section)−(Turbidity in blank)]/[(Turbidity in control section)−(Turbidity in blank)]×100 (Activity of inhibiting intracellular signaling from plant-derived cytokinin receptor of cell) [%]=100−(Relative growth rate in test section to control section)
(§5) In all cases, the existing concentration of trans-zeatin was adjusted to 0.6 ppm and the existing concentration of a chemical substance was adjusted to 2 ppm.
(§6) In all cases, the existing concentration of trans-zeatin was adjusted to 0.6 ppm and the existing concentration of a chemical substance was adjusted to 2 […].

cytokinin receptor CRE1 = biological target: T1, cytokinin receptor CRE1 (Arabidopsis thaliana, UniProt Q9C5U0, S567G/T1018A); assay: Inhibition of intracellular signaling from plant-derived cytokinin receptor, growth of transformed yeast cell TM182-CRE1; format: cell-based; conditions: trans-zeatin 0.6 ppm, chemical substance 2 ppm; for Relative growth rate (%) in test section of test substance to control section, Transformed cell TM182-CRE1: 30° C., 24 hours, turbidity OD 600; for Activity (%) of test substance for inhibiting intracellular signaling from plant-derived cytokinin receptor of cell: = 100 − relative growth rate of TM182-CRE1
T1 construct: expressed in transfected cells; host or cells: Saccharomyces cerevisiae TM182 (sln1Δ) transformed with p415CYC-CRE1
T1 sequence (Q9C5U0 24-1080 S567G/T1018A): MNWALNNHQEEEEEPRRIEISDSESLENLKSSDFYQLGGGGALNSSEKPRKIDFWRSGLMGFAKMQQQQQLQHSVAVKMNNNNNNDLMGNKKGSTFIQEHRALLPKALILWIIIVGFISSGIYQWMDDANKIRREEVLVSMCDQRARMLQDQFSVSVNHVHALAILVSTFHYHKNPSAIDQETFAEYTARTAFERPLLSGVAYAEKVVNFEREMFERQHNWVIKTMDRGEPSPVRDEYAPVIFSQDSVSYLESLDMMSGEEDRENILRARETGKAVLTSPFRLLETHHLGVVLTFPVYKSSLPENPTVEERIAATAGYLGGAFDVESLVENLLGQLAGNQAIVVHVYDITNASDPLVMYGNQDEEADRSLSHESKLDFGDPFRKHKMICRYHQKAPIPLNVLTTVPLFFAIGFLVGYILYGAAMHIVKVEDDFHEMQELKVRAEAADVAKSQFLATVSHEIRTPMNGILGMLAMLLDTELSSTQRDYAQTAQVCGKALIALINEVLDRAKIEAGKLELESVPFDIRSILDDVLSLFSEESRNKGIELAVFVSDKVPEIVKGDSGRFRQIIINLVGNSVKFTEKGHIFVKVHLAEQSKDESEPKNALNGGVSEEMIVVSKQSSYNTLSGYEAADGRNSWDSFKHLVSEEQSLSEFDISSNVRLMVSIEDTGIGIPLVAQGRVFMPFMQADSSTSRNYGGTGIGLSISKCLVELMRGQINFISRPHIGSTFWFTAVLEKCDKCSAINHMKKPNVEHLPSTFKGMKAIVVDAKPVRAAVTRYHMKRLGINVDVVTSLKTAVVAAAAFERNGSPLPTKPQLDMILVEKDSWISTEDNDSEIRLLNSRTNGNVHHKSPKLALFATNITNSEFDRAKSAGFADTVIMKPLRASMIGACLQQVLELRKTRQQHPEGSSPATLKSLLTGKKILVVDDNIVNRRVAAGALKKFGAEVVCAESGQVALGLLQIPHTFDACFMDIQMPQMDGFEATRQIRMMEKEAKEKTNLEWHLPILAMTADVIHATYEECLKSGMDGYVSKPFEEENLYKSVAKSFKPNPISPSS
Protocol: as §1, §2, §3, §4, §5, §6

[2] = test final concentration 10 ppm (concentration with highest root growth rate)
[3] = test final concentration 2.5 ppm (concentration with highest root growth rate)

Row | Compound | Relative growth rate (%) in test section of test substance to control section, Transformed cell TM182-p415CYC1 [1] [%] | Relative growth rate (%) in test section of test substance to control section, Transformed cell TM182-CRE1 (cytokinin receptor CRE1) [%] | Activity (%) of test substance for inhibiting intracellular signaling from plant-derived cytokinin receptor of cell (cytokinin receptor CRE1) [%] | other results
1 | Clc1nc(-c2ccccc2)c2c(Cl)cccc2n1 [Ia1-1] | – | – | – | Root growth-promoting activity (root growth rate) (Arabidopsis thaliana; test final concentration 5 ppm (concentration with highest root growth rate)): 133.3%
2 | Fc1ccc2nc(Cl)nc(-c3ccccc3)c2c1 [Ia1-2] | – | – | – | Root growth-promoting activity (root growth rate) (Arabidopsis thaliana; [2]): 139.7%
3 | FC(F)(F)c1ccc2nc(Cl)nc(-c3ccccc3)c2c1 [Ia1-6] | – | – | – | Root growth-promoting activity (root growth rate) (Arabidopsis thaliana; test final concentration 0.625 ppm (concentration with highest root growth rate)): 126.9%
4 | O=[N+]([O-])c1ccc2nc(Cl)nc(-c3ccccc3)c2c1 [Ia1-7] | 78.8 | 1.2 | 98.8 | –
5 | Clc1cccc(-c2nc(Cl)nc3ccc(Cl)cc23)c1 [Ia1-14] | – | – | – | Root growth-promoting activity (root growth rate) (Arabidopsis thaliana; test final concentration 0.156 ppm (concentration with highest root growth rate)): 129.3%
6 | O=Cc1nc(-c2ccccc2Cl)c2cc(Br)ccc2n1 [Ib4-1] | 110.9 | 8.7 | 91.3 | –
7 | OCCCNc1nc(-c2ccccc2)c2cc(F)ccc2n1 [Ic2-1] | 124.6 | 2.8 | 97.2 | Root growth-promoting activity (root growth rate) (Arabidopsis thaliana; [3]): 127.4%
8 | COCCN(C)c1nc(-c2ccccc2)c2cc(Cl)ccc2n1 [Ic3-9] | 122.0 | 1.5 | 98.5 | –
9 | C#CCNc1nc(-c2ccccc2)c2cc(Cl)ccc2n1 [Ic3-30] | 108.9 | 2.2 | 97.8 | –
10 | NC(=O)CNc1nc(-c2ccccc2)c2cc(Cl)ccc2n1 [Ic3-31] | – | – | – | Root growth-promoting activity (root growth rate) (Arabidopsis thaliana; [2]): 142.2%
11 | N#CCCNc1nc(-c2ccccc2)c2cc(Cl)ccc2n1 [Ic3-34] | 118.5 | 0.2 | 99.8 | –
12 | N=C(N)Nc1nc(-c2ccccc2)c2cc(Cl)ccc2n1 [Ic3-36] | – | – | – | Root growth-promoting activity (root growth rate) (Arabidopsis thaliana; [3]): 123.1%
13 | CCOCCNc1nc(-c2ccccc2)c2cc(Cl)ccc2n1 [Ic3-45] | 98.7 | 0.8 | 99.2 | –
14 | OCCNc1nc(-c2ccccc2)c2cc(Br)ccc2n1 [Ic4-1] | 95.0 | 4.6 | 95.4 | –
15 | OCCCNc1nc(-c2ccccc2)c2cc(Br)ccc2n1 [Ic4-2] | 109.3 | 0.9 | 99.1 | –
16 | COc1ccc2nc(NCCCO)nc(-c3ccccc3)c2c1 [Ic8-1] | – | – | – | Root growth-promoting activity (root growth rate) (Arabidopsis thaliana; [2]): 162.1%
17 | NCCOc1nc(-c2ccccc2)c2cc(Cl)ccc2n1 [Id3-1, 2-(2-aminoethoxy)-6-chloro-4-phenylquinazotine] | 112.5 | 2.1 | 97.9 | –
18 | NCCSc1nc(-c2ccccc2)c2cc(Cl)ccc2n1 [Ie3-2] | – | – | – | Root growth-promoting activity (root growth rate) (Arabidopsis thaliana; [2]): 147.6%
